Assay [1] relates to pancreatic cells (BXPC3). The assay can be described thus: Cell death of BXPC3 pancreatic cells. The format is cell-based. To be noted: FIG. 26.
The test system of assay [2] is OSCSCs. The assay can be described thus: Cell death of OSCSCs by propidium iodide staining. The class given is cell-based, human. To be noted: overnight. Here is the method:
(§1) OSCSCs and OSCCs were treated with HEMA (1:600) and the chemotherapeutic drug cisplatinum at 10 μg/ml, 40 μg/ml and 80 μg/ml. After an overnight incubation the levels of cell death in each tumor type was determined using propidium iodide staining.
(§2) OSCSCs and OSCCs were irradiated at 2 Gy, 10 Gy and 20 Gy and left untreated or treated with chemotherapeutic drug cisplatinum at 40 μg/ml. After an overnight incubation the levels of cell death in each tumor type was determined using propidium iodide staining.
(§3) OSCSC and OSCCs were treated with Paclitaxel at 10 μg/ml, 40 μg/ml and 80 μg/ml in the presence and absence of NAC (20 mM) and after an overnight incubation the levels of cell death were determined using propidium iodide staining.

Assay [3] concerns OSCSCs. The assay can be described thus: Cell death of OSCSCs by propidium iodide staining. The conditions noted are these: UC2 (OSCSCs, stem-like oral tumors); FIG. 25. The class given is cell-based, human.
Assay [4] relates to OSCCs. The assay can be described thus: Cell death of OSCCs by propidium iodide staining. The format is cell-based, human. To be noted: for levels of cell death (propidium iodide staining): overnight; for Dose dependent effect on oral tumors: UC-1 (OSCCs, differentiated oral tumor), FIG. 25. The procedure:
as §1, §2, §3

Assay [5] relates to lung (A549) tumors. The assay can be described thus: Cell death of A549 lung tumors. The format is cell-based. To be noted: A549 pre-treated 5 days with supernatants from anergized NK cells (IL-2+anti-CD16 mAb), then Cisplatin overnight; FIG. 32. The procedure: NK treatments were carried out for 24 hours before the supernatants were removed and used to treat A549 lung tumors for 5 days. All the NK supernatant treated lung tumors were then washed and treated with different concentrations of Cisplatin as shown in the figure and incubated overnight before they were stained with propidium iodide to determine cell death in each sample.

Assay [6] relates to undifferentiated MSCs. The assay can be described thus: Cell death of MSCs versus osteoblasts, flow cytometry of PI stained cells. The format is cell-based, human. To be noted: undifferentiated MSCs compared to differentiated osteoblasts; different concentrations of HEMA; overnight; FIG. 8F. The procedure:
FIG. 8. […] After 2 days of co-cultures, Alkaline Phosphatase staining was performed. […] The ALP stain densities for each well were determined using photoshop software (B). […] After 2 days of co-cultures Alkaline Phosphatase staining was performed. […] The ALP stain densities for each well were determined using photoshop software (D). Stem cells and Osteoblasts were cultured with and without untreated PBMCs as described above and after two days of incubation the supernatants were removed and subjected to specific ELISA for VEGF (E). Undifferentiated MSCs and those differentiated to osteoblasts were cultured in the absence and presence of different concentrations of HEMA as indicated in the figure and the levels of cell death were determined by flow cytometric analysis of PI stained MSCs and osteoblasts after an overnight incubation (F). […] After an overnight incubation, the cells were washed and B7H1 surface expression was determined on MSC gated populations. Isotype control antibodies were used as controls (I). MSCs were left untreated or treated with IFN-γ (500 u/ml). After an overnight incubation, MSCs were washed and the B7H1 surface expression was determined on MSC.
Moreover, when MSCs were cultured with NK cells alone or NK cells with monocytes significant induction of B7H1 surface expression could be observed in surviving MSCs (FIG. 8I). […]

[7] abbreviates: OSCSCs, HEMA 1:600, cisplatinum 10, 40 and 80 μg/ml, FIG. 15.
[8] abbreviates: OSCCs, HEMA 1:600, cisplatinum 10, 40 and 80 μg/ml, FIG. 15.

“Also recorded” adds a separate entry of the source.

Regarding `N.N.[Cl][Pt][Cl]` [Cisplatin, cisplatin], the “cisplatin mediated killing of pancreatic cells” value in assay [1] is “Dose dependent increase”. In addition, the “levels of cell death (propidium iodide staining)” value is recorded as “significantly more resistant; also recorded: Resistance” in assay [2] (OSCSCs irradiated at 2, 10, 20 Gy, cisplatinum 40 μg/ml, FIG. 16); “significantly more resistant; also recorded: Resistance” in assay [2] (setting [7]); “lysed OSCCs significantly” in assay [4] (OSCCs irradiated at 2, 10, 20 Gy, cisplatinum 40 μg/ml, FIG. 16); “lysed OSCCs significantly” in assay [4] (setting [8]). The “Dose dependent effect on oral tumors” value is on record as “does not kill OSCSCs” in assay [3] and “increased effect on differentiated OSCCs” in assay [4]. Further, the “cell death by Cisplatin (propidium iodide)” value in assay [5] is listed as “highest induction of cell death by Cisplatin”.
On to `C=C(C)C(=O)OCCO` [HEMA], for which the “levels of cell death (PI staining, flow cytometry)” value in assay [6] is listed as “induced significant cell death”. The entries for the “levels of cell death (propidium iodide staining)” value in assay [2] (setting [7]) and in assay [4] (setting [8]) were “significantly more resistant; also recorded: Resistance” and “lysed OSCCs significantly”, respectively.
Turning to `CC(=O)N[C@@H](CS)C(=O)O` [NAC, N-acetylcysteine], in assay [1] (in the presence of cisplatin), the “effect of NAC on cisplatin mediated killing of pancreatic cells” value is reported as “inhibits cisplatin mediated killing”.
As to `CC(=O)O[C@H]1C(=O)[C@@]2(C)[C@H]([C@H](OC(=O)c3ccccc3)[C@]3(O)C[C@H](OC(=O)[C@H](O)[C@@H](NC(=O)c4ccccc4)c4ccccc4)C(C)=C1C3(C)C)[C@]1(OC(C)=O)CO[C@@H]1C[C@@H]2O` [Paclitaxel, paclitaxel], the “levels of cell death (propidium iodide staining)” value in assay [2] (OSCSCs (cancer stem cells), Paclitaxel 10, 40 and 80 μg/ml with and without NAC 20 mM, FIG. 17) is reported as “Lysis”; in assay [2] (OSCSCs (cancer stem cells), Paclitaxel 10, 40 and 80 μg/ml with and without NAC 20 mM, FIG. 17, listed as paclitaxel) it was “lysed both cell types”; in assay [4] (OSCCs, Paclitaxel 10, 40 and 80 μg/ml with and without NAC 20 mM, FIG. 17) it was “lysed both cell types”. Besides, the “Dose dependent effect on oral tumors” value in assay [3] and in assay [4] was “affects both cell types similarly” each time.

For the origin of these results see US20120009203A1, “Depletion of cancer stem cells” (priority 2010, published 2012).
